Tested on: TNBS induced IBS model
Test: Colonic distension study in TNBS induced rat IBS model (pain threshold)
Format: in vivo
Details: male SD rats, TNBS 50 mg/kg, 7 days after surgery; 10 mg/kg p.o.; FIG. 1
Experimental: [Evaluation of Therapeutic Effects on IBS in the Rat]
The pharmacological effects of the test compounds in this invention was evaluated by measuring the improvement effect against lowering of the pain threshold at colon extension stimulation in TNBS induced IBS model.
For details, please refer to the literature, Katsuyo Ohashi at al., Pharmacology, 81(2): 144-150 (2008).
The median incision was conducted under anesthesia in animals, male SD rats, 240-270 g. TNBS solution (50 mg/kg, 30% methanol) was treated at the beginning of the colon in the rats. After the treatment, the cecum is put back into the abdominal cavity. The muscle wall is then sutured. After operation the animals were housed in the normal environment, and were used for the pharmacological evaluation after 7 days from the surgery. The colon extension stimulation was used for the evaluation of the compounds, Diop L. et al., J Pharmacol Exp Ther. 302(3): 1013-22 (2002). The balloon (5 cm in length) is inserted through the anus and kept in position (tip of balloon is 5 cm from the anus). Then the balloon was progressively inflated by step of 5 mm Hg, from 0 to 70 mm Hg by using Barostat (Barostat DISTENDER II R, G & J, CANADA). The pain threshold was evaluated the pressure that corresponded to produced the first abdominal contraction (abdominal cramp: Wesselmann U et al., (1998) Neurosci Lett 246: 73-76). […]

Cn1nc(C(=O)NCCN2CCOCC2)cc1-c1cc2cccnc2[nH]1 [Example compound 24, 1-methyl-N-[2-(morpholin-4-yl)ethyl]-5-{1H-pyrrolo[2,3-b]pyridin-2-yl}-1H-pyrazole-3-carboxamide]
improvement effect against lowering of the pain threshold at colon extension stimulation: improvement effects against lowering of the pain threshold
